Assays:
[1] = target: PKR R532W (Homo sapiens, UniProt P30613, R532W); test: PKR Mutant Assay, AC50 against PKR R532W; assay type: biochemical; conditions: mutant PKR R532W enzyme
Procedure, shortened: (§1)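 Human PKR (WT or mutant, 80-400 ng/well) in 50 mM Tris pH 7.5, 100 mM KCl, 5 mM MgCl2, 1 mM DTT, 0.03% BSA with PEP 0.1-0.5 mM, NADH 180 uM and LDH, preincubated 60 min at room temperature with compound (11-point 3-fold series from 100 μM final, 1% DMSO). ADP 0.22-1.65 mM started reaction; A340 followed.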

[2] = target: PKR R510Q (Homo sapiens, UniProt P30613, R510Q); test: PKR Mutant Assay, AC50 against PKR R510Q; assay type: biochemical; conditions: mutant PKR R510Q enzyme
PKR R510Q, sequence (P30613 whole entry R510Q): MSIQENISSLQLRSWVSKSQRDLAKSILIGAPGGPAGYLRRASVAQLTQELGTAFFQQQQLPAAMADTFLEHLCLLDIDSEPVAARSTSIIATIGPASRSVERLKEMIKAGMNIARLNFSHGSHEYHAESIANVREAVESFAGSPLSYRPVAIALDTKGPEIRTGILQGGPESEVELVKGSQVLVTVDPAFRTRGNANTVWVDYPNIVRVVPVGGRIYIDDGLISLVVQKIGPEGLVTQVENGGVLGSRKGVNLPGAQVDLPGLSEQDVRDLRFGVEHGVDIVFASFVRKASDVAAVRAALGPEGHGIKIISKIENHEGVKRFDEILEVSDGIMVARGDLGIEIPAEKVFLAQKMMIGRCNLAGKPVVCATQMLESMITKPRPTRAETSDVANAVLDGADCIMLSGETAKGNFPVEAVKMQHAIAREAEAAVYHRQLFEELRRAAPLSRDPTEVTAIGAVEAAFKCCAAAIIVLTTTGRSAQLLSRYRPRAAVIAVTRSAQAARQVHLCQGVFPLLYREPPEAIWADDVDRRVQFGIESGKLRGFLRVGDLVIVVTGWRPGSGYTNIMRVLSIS
Procedure, shortened: as §1

[3] = target: T1, PKR WT (Homo sapiens, UniProt P30613); test: PKR WT enzymatic AC50 assay; assay type: biochemical; conditions: wild type PKR
T1 sequence (P30613 whole entry): as the sequence (P30613 whole entry R510Q) above, with Q510R counted along it
Procedure, shortened: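 Steps: compound added to wells, then reaction mix lacking ADP; 60 min room-temperature hold; ADP (0.22-1.65 mM) added to start; A340 monitored at room temperature via PEP/LDH/NADH coupling. Top final compound concentration 100 μM, 3-fold dilutions over 11 points.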

[4] = target: T1, PKR WT; test: PKR WT cell based AC50 assay; conditions: wild type PKR

PKR R532W, sequence (P30613 whole entry R532W): as the sequence (P30613 whole entry R510Q) above, with Q510R, R532W counted along it

| AC50 [1] [nM] | AC50 [2] [nM] | AC50 [3] [nM] | AC50 [4] [nM] | Compound |
| --- | --- | --- | --- | --- |
| < 100 | 101 to 1000 | < 100 | < 100 | O=C(c1ccc(NS(=O)(=O)c2cccc3cccnc23)cc1)N1CCC(O)(c2cnsc2)CC1 [Compound 353] |
| < 100 | 101 to 1000 | < 100 | < 100 | O=C(c1ccc(NS(=O)(=O)c2cccc3cccnc23)cc1)N1CCC(O)(c2cnsc2)CC1 [Compound 377] |
| 101 to 1000 | 101 to 1000 | 101 to 1000 | 101 to 1000 | CC(C)CC1(O)CCN(C(=O)c2ccc(NS(=O)(=O)c3cccc4ocnc34)cc2)CC1 [Compound 379, N-(4-(4-hydroxy-4-isobutylpiperidine-1-carbonyl)phenyl)benzo[d]oxazole-4-sulfonamide] |
| 101 to 1000 | 101 to 1000 | < 100 | < 100 | CC(C)CC1(O)CCN(C(=O)c2ccc(NS(=O)(=O)c3cccc(O)c3N)cc2)CC1 [Compound 380, 2-amino-3-hydroxy-N-(4-(4-hydroxy-4-isobutylpiperidine-1-carbonyl)phenyl)benzenesulfonamide] |
| 101 to 1000 | 101 to 1000 | < 100 | < 100 | Nc1c(O)cccc1S(=O)(=O)Nc1ccc(C(=O)N2CCC(O)(c3ccccc3Cl)CC2)cc1 [Compound 382, 2-amino-N-(4-(4-(2-chlorophenyl)-4-hydroxypiperidine-1-carbonyl)phenyl)-3-hydroxybenzenesulfonamide] |
| < 100 | 101 to 1000 | < 100 | < 100 | Cc1nc2c(S(=O)(=O)Nc3ccc(C(=O)N4CCC(O)(c5ccccc5Cl)CC4)cc3)cccc2o1 [Compound 383, N-(4-(4-(2-chlorophenyl)-4-hydroxypiperidine-1-carbonyl)phenyl)-2-methylbenzo[d]oxazole-4-sulfonamide] |
| < 100 | < 100 | < 100 | < 100 | CNc1nc2c(S(=O)(=O)Nc3ccc(C(=O)N4CCC(O)(CC(C)C)CC4)cc3)cc(Cl)cc2s1 [Compound 385, 6-chloro-N-(4-(4-hydroxy-4-isobutylpiperidine-1-carbonyl)phenyl)-2-(methylamino)benzo[d]thiazole-4-sulfonamide] |
| < 100 | 101 to 1000 | < 100 | 101 to 1000 | CC(F)(F)CCC1(O)CCN(C(=O)c2ccc(NS(=O)(=O)c3cccc4scnc34)cc2)CC1 [Compound 387, N-(4-(4-(3,3-difluorobutyl)-4-hydroxypiperidine-1-carbonyl)phenyl)benzo[d]thiazole-4-sulfonamide] |
| < 100 | < 100 | < 100 | < 100 | CC(C)CC1(O)CCN(C(=O)c2ccc(NS(=O)(=O)c3cccc4c(O)ncnc34)cc2)CC1 [Compound 388, 4-hydroxy-N-(4-(4-hydroxy-4-isobutylpiperidine-1-carbonyl)phenyl)quinazoline-8-sulfonamide] |
| < 100 | < 100 | < 100 | < 100 | O=C(c1ccc(NS(=O)(=O)c2cccc3scnc23)cc1)N1CCC(O)(CCCC(F)F)CC1 [Compound 389, N-(4-(4-(4,4-difluorobutyl)-4-hydroxypiperidine-1-carbonyl)phenyl)benzo[d]thiazole-4-sulfonamide] |
| < 100 | < 100 | < 100 | < 100 | C=C(CC1(O)CCN(C(=O)c2ccc(NS(=O)(=O)c3cccc4scnc34)cc2)CC1)C(F)(F)F [Compound 390, N-(4-(4-hydroxy-4-(2-(trifluoromethyl)allyl)piperidine-1-carbonyl)phenyl)benzo[d]thiazole-4-sulfonamide] |
| < 100 | < 100 | < 100 | < 100 | CC(CC1(O)CCN(C(=O)c2ccc(NS(=O)(=O)c3cccc4scnc34)cc2)CC1)C(F)(F)F (stereo not drawn) [Compound 391] |
| < 100 | < 100 | < 100 | < 100 | CC(C)CCC1(O)CCN(C(=O)c2ccc(NS(=O)(=O)c3cccc4scnc34)cc2)CC1 [Compound 392, N-(4-(4-hydroxy-4-isopentylpiperidine-1-carbonyl)phenyl)benzo[d]thiazole-4-sulfonamide] |
| < 100 | 101 to 1000 | < 100 | < 100 | O=C(c1ccc(NS(=O)(=O)c2cccc3scnc23)cc1)N1CCC(O)(CCC=C(F)F)CC1 [Compound 393, N-(4-(4-(4,4-difluorobut-3-en-1-yl)-4-hydroxypiperidine-1-carbonyl)phenyl)benzo[d]thiazole-4-sulfonamide] |
| < 100 | 101 to 1000 | < 100 | < 100 | O=C(c1ccc(NS(=O)(=O)c2cccc3scnc23)cc1)N1CCC(O)(CCCC(F)(F)F)CC1 [Compound 394, N-(4-(4-hydroxy-4-(4,4,4-trifluorobutyl)piperidine-1-carbonyl)phenyl)benzo[d]thiazole-4-sulfonamide] |
| < 100 | 101 to 1000 | < 100 | 101 to 1000 | O=C(c1ccc(NS(=O)(=O)c2cccc3scnc23)cc1)N1CCC(O)(CCC(F)=C(F)F)CC1 [Compound 395, N-(4-(4-hydroxy-4-(3,4,4-trifluorobut-3-enyl)piperidine-1-carbonyl)phenyl)benzo[d]thiazole-4-sulfonamide] |
| 101 to 1000 | 101 to 1000 | < 100 | < 100 | CC(F)(F)CCC1(O)CCN(C(=O)c2ccc(NS(=O)(=O)c3cccc4nccnc34)cc2)CC1 [Compound 396, N-(4-(4-(3,3-difluorobutyl)-4-hydroxypiperidine-1-carbonyl)phenyl)quinoxaline-5-sulfonamide] |
| < 100 | < 100 | < 100 | < 100 | O=C(c1ccc(NS(=O)(=O)c2cccc3nccnc23)cc1)N1CCC(O)(CCCC(F)(F)F)CC1 [Compound 397, N-(4-(4-hydroxy-4-(4,4,4-trifluorobutyl)piperidine-1-carbonyl)phenyl)quinoxaline-5-sulfonamide] |
| < 100 | 101 to 1000 | < 100 | < 100 | O=C(c1ccc(NS(=O)(=O)c2cccc3nccnc23)cc1)N1CCC(O)(CCC(F)=C(F)F)CC1 [Compound 398, N-(4-(4-hydroxy-4-(3,4,4-trifluorobut-3-enyl)piperidine-1-carbonyl)phenyl)quinoxaline-5-sulfonamide] |
| < 100 | < 100 | < 100 | < 100 | O=C(c1ccc(NS(=O)(=O)c2cccc3nccnc23)cc1)N1CCC(O)(CCC=C(F)F)CC1 [Compound 399, N-(4-(4-(4,4-difluorobut-3-en-1-yl)-4-hydroxypiperidine-1-carbonyl)phenyl)quinoxaline-5-sulfonamide] |
| < 100 | 101 to 1000 | < 100 | < 100 | O=C(c1ccc(NS(=O)(=O)c2cccc3nccnc23)cc1)N1CCC(O)(CCCC(F)F)CC1 [Compound 400, N-(4-(4-(4,4-difluorobutyl)-4-hydroxypiperidine-1-carbonyl)phenyl)quinoxaline-5-sulfonamide] |
| < 100 | 101 to 1000 | < 100 | 101 to 1000 | O=C(c1ccc(NS(=O)(=O)c2cc(F)cc3scnc23)cc1)N1CCC(O)(c2ccccc2Cl)CC1 [Compound 401, N-(4-(4-(2-chlorophenyl)-4-hydroxypiperidine-1-carbonyl)phenyl)-6-fluorobenzo[d]thiazole-4-sulfonamide] |
| < 100 | < 100 | < 100 | < 100 | CC(C)CC1(O)CCN(C(=O)c2ccc(NS(=O)(=O)c3cccc4ccc(N)nc34)cc2)CC1 [Compound 402, 2-amino-N-(4-(4-hydroxy-4-isobutylpiperidine-1-carbonyl)phenyl)quinoline-8-sulfonamide] |
| < 100 | 101 to 1000 | 101 to 1000 | < 100 | CC(C)(F)CC1(O)CCN(C(=O)c2ccc(NS(=O)(=O)c3cccc4scnc34)cc2)CC1 [Compound 403, N-(4-(4-(2-fluoro-2-methylpropyl)-4-hydroxypiperidine-1-carbonyl)phenyl)benzo[d]thiazole-4-sulfonamide] |
| < 100 | < 100 | < 100 | 101 to 1000 | O=C(c1ccc(NS(=O)(=O)c2cccc3scnc23)cc1)N1CCC(O)(/C=C/CC(F)(F)F)CC1 [Compound 404, (E)-N-(4-(4-hydroxy-4-(4,4,4-trifluorobut-1-enyl)piperidine-1-carbonyl)phenyl)benzo[d]thiazole-4-sulfonamide] |
| 101 to 1000 | 101 to 1000 | 101 to 1000 | 101 to 1000 | CC(CC1(O)CCN(C(=O)c2ccc(NS(=O)(=O)c3cccc4scnc34)cc2)CC1)C(F)F (stereo not drawn) [Compound 405, N-(4-(4-(3,3-difluoro-2-methylpropyl)-4-hydroxypiperidine-1-carbonyl)phenyl)benzo[d]thiazole-4-sulfonamide] |
| < 100 | < 100 | < 100 | < 100 | CC(C)CC1(O)CCN(C(=O)c2ccc(NS(=O)(=O)c3cccc4sc(N)nc34)cc2)CC1 [Compound 406, 2-amino-N-(4-(4-hydroxy-4-isobutylpiperidine-1-carbonyl)phenyl)benzo[d]thiazole-4-sulfonamide] |
